Measured values as given in patent US10064883B2, “Lipiodol-based anti-tumour emulsion for treating cancer” (CHU DE DIJON, priority 2012, dated 2018).

Tests used:
Assay type in all cases: cell-based
[1] = system: SNU-449; assay: in vitro effectiveness of anticancer agents on CHC cell line SNU-449; details: SNU-449 CHC cell line
[2] = system: HepG2; assay: in vitro effectiveness of anticancer agents on CHC cell line HepG2
[3] = system: SNU-398; assay: in vitro effectiveness of anticancer agents on CHC cell line SNU-398; details: SNU-398 CHC cell line

Measured: effectiveness among the anticancer agents in vitro

CC(=O)[C@]1(O)Cc2c(O)c3c(c(O)c2[C@@H](O[C@H]2C[C@H](N)[C@H](O)[C@H](C)O2)C1)C(=O)c1ccccc1C3=O [Idarubicin]
most effective: all assays above
